For experiment [1], the system named is methicillin-resistant Staphylococcus aureus MRSA-2 (clinical isolate). As to the kind of experiment: MIC broth microdilution, MRSA-2. Type of experiment: cell-based. The note with it: for MIC: read-out: MIC MRSA-2. As for the experimental part:
(§1) The minimum inhibitory concentration (MIC) for each tested compound was determined by the broth microdilution method as recommended by the Clinical and Laboratory Standards Institute (CLSI). In a 96-well plate, eleven two-fold serial dilutions of each compound were made in a final volume of 100 μL Luria Broth. Each well was inoculated with ˜10^5 bacterial cells at the initial time of incubation, prepared from a fresh log phase culture (OD600 of 0.5 to 1.0 depending on bacterial strain). The MIC was defined as the lowest concentration of compound that prevented bacterial growth after incubating 16 to 18 hours at 37° C. (MIC values were supported by spectrophotometric readings at OD600). DMSO served as our vehicle and negative control in each microdilution MIC assay. DMSO was serially diluted with a top concentration of 1% v/v.
as §1, with “for each compound was” for “for each tested compound was”, “Standards Institute (CLSI).^6 In a” for “Standards Institute (CLSI). In a”, “concentration of test compound that” for “concentration of compound that”, “37° C. The concentration range tested for each compound during this study was 0.10 to 100 μM. DMSO served” for “37° C. (MIC values were supported by spectrophotometric readings at OD600). DMSO served”, “1% v/v. All MIC values were obtained from a minimum of three independent experiments.” for “1% v/v.”
(Dilution methods test growth across graded concentrations, often in twofold steps.)

The subject of experiment [2] is methicillin-resistant Staphylococcus epidermidis (MRSE strain ATCC 35984). As to the kind of experiment: MIC broth microdilution, MRSE 35984. Type of experiment: cell-based. The note with it: for MIC S. epidermidis MRSE 35984: Table 1A; for MIC MRSE 35984: Table 4. As for the experimental part:
as §1
as §1, with “for each compound was” for “for each tested compound was”, “Standards Institute (CLSI).^6 In a” for “Standards Institute (CLSI). In a”, “concentration of test compound that” for “concentration of compound that”, “37° C. The concentration range tested for each compound during this study was 0.10 to 100 μM. DMSO served” for “37° C. (MIC values were supported by spectrophotometric readings at OD600). DMSO served”, “1% v/v. All MIC values were obtained from a minimum of three independent experiments.” for “1% v/v.”

The subject of experiment [3] is vancomycin-resistant Enterococcus faecium (VRE strain ATCC 700221). Kind of experiment: MIC broth microdilution, VRE 700221. The format is cell-based. The note with it: for MIC E. faecium VRE 700221: Table 1A; for MIC VRE 700221: Table 4. As for the experimental part: as §1
as §1, with “for each compound was” for “for each tested compound was”, “Standards Institute (CLSI).^6 In a” for “Standards Institute (CLSI). In a”, “concentration of test compound that” for “concentration of compound that”, “37° C. The concentration range tested for each compound during this study was 0.10 to 100 μM. DMSO served” for “37° C. (MIC values were supported by spectrophotometric readings at OD600). DMSO served”, “1% v/v. All MIC values were obtained from a minimum of three independent experiments.” for “1% v/v.”

Experiment [4] relates to Acinetobacter baumannii (ATCC 1794). As to the kind of experiment: MIC broth microdilution, A. baumannii 1794. Type of experiment: cell-based. The note with it: for MIC A. baumannii 1794: Table 1A, in µM; for MIC A. bau. 1794: Table 4. Here is the method: as §1
as §1, with “for each compound was” for “for each tested compound was”, “Standards Institute (CLSI).^6 In a” for “Standards Institute (CLSI). In a”, “concentration of test compound that” for “concentration of compound that”, “37° C. The concentration range tested for each compound during this study was 0.10 to 100 μM. DMSO served” for “37° C. (MIC values were supported by spectrophotometric readings at OD600). DMSO served”, “1% v/v. All MIC values were obtained from a minimum of three independent experiments.” for “1% v/v.”

The subject of experiment [5] is Pseudomonas aeruginosa (PAO1). Kind of experiment: MIC broth microdilution, PAO1. Type of experiment: cell-based. As for the experimental part:
as §1
as §1, with “for each compound was” for “for each tested compound was”, “Standards Institute (CLSI).^6 In a” for “Standards Institute (CLSI). In a”, “concentration of test compound that” for “concentration of compound that”, “37° C. The concentration range tested for each compound during this study was 0.10 to 100 μM. DMSO served” for “37° C. (MIC values were supported by spectrophotometric readings at OD600). DMSO served”, “1% v/v. All MIC values were obtained from a minimum of three independent experiments.” for “1% v/v.”

Another experiment concerns MRSA BAA-1707. As to the kind of experiment: MIC broth microdilution, MRSA BAA-1707. The format is cell-based, Staphylococcus aureus. Here is the method: as §1, with “The MIC was defined as the lowest concentration of compound that prevented bacterial growth after incubating 16 to 18 hours at 37° C.” left out
(§2) Each well was inoculated with ˜10^5 bacterial cells at the initial time of incubation, prepared from a fresh log phase culture (OD600 of 0.5 to 1.0 depending on bacterial strain). […] The concentration range tested for each compound during this study was 0.10 to 100 μM. DMSO served as our vehicle and negative control in each microdilution MIC assay. DMSO was serially diluted with a top concentration of 1% v/v. All MIC values were obtained from a minimum of three independent experiments.

Experiment [6] concerns methicillin-sensitive Staphylococcus aureus ATCC 29213. Kind of experiment: MIC broth microdilution, S. aureus 29213. Type of experiment: cell-based. Here is the method:
as §1, with “The MIC was defined as the lowest concentration of compound that prevented bacterial growth after incubating 16 to 18 hours at 37° C.” left out
as §2

Each structure is given as a SMILES string. Read-outs that look alike come from different tables or passages of the source. Marks after values point to notes of the source that are not given here. Where only a bound is given, the exact number is not on record here.

One may read the MIC as the lowest concentration found to suppress growth.

In experiment [1] (Table 1A), `CCCCCCCCCCCCCCCCn1cc[n+](Cc2ccc(C(C)(C)C)cc2)c1C.[Br-]` [Compound 13] came in with an MIC MRSA-2 of 12.5 µM. Further, in experiment [1] (Table 4), the “MIC MRSA-2” value amounted to 12.5 µM. For the same molecule, in experiment [2], the “MIC S. epidermidis MRSE 35984” value is 9.38^a and the “MIC MRSE 35984” value amounted to 9.38a micromolar. Moreover, in experiment [3], the “MIC E. faecium VRE 700221” value is 4.69^a and the “MIC VRE 700221” value came out at 4.69a micromolar. In addition, in experiment [4], the “MIC A. baumannii 1794” value is recorded as over 100 and the “MIC A. bau. 1794” value was over 100 µM. For the same molecule, the MIC PAO1 in experiment [5] (Table 1A) was over 100 µM. In addition, the “MIC PAO1” value in experiment [5] (Table 4) was over 100 µM.
Regarding `CCCCCCCCCCCCCCCCn1c(C)[n+](Cc2cccc(OC)c2)c2ccccc21.[Br-]` [Compound 26], the MIC MRSA-2 in experiment [1] (Table 1A) is 3.13 µM. The “MIC MRSA-2” value in experiment [1] (Table 4) is 3.13 µM. Also, in experiment [2], the MIC S. epidermidis MRSE 35984 was 6.25 µM and the “MIC MRSE 35984” value amounted to 6.25 µM. Besides, in experiment [3], the MIC E. faecium VRE 700221 turned out to be 1.56 µM and the “MIC VRE 700221” value came out at 1.56 µM. In addition, in experiment [4], the “MIC A. baumannii 1794” value is recorded as over 100 and the “MIC A. bau. 1794” value is over 100 µM. Besides, the MIC PAO1 in experiment [5] (Table 1A) is over 100 µM. Further, in experiment [5] (Table 4), the “MIC PAO1” value was over 100 µM.
In turn, `CCCCCCCCCCCCCCCCn1cc[n+](Cc2ccc(C(C)C)cc2)c1C.[Br-]` [Compound 12] came in with an MIC MRSA-2 in experiment [1] (Table 1A) of 6.25 µM. In addition, the “MIC MRSA-2” value in experiment [1] (Table 4) is 6.25 µM. Besides, in experiment [2], the “MIC S. epidermidis MRSE 35984” value is given as 2.35^a and the “MIC MRSE 35984” value came to 2.35a micromolar. Besides, in experiment [3], the MIC E. faecium VRE 700221 was determined as 3.13 µM and the “MIC VRE 700221” value was 3.13 µM. Also, in experiment [4], the “MIC A. baumannii 1794” value is given as over 100 and the “MIC A. bau. 1794” value is over 100 µM. Further, in experiment [5] (Table 1A), the MIC PAO1 was over 100 µM. Besides, the “MIC PAO1” value in experiment [5] (Table 4) is over 100 µM.
Consider `CCCCCCCCCCCCCCCCn1cc[n+](Cc2cc(Br)cc(Br)c2)c1C.[Br-]` [Compound 20], for which the MIC MRSA-2 in experiment [1] (Table 1A) came out at 37.5 µM. Besides, in experiment [1] (Table 4), the “MIC MRSA-2” value amounted to 37.5 µM. In experiment [2], the MIC S. epidermidis MRSE 35984 turned out to be 12.5 µM and the “MIC MRSE 35984” value amounted to 12.5 µM. In experiment [3], the MIC E. faecium VRE 700221 is 6.25 µM and the “MIC VRE 700221” value was found to be 6.25 µM. Moreover, in experiment [4], the “MIC A. baumannii 1794” value is reported as over 100 and the “MIC A. bau. 1794” value was over 100 µM. In experiment [5] (Table 1A), the MIC PAO1 is over 100 µM. Also, in experiment [5] (Table 4), the “MIC PAO1” value was over 100 µM.
In experiment [1] (Table 1A), `CCCCCCCCCCCCCCCCn1cc[n+](Cc2ccc(Br)cc2)c1C.[Br-]` [Compound 14] showed an MIC MRSA-2 of 6.25 µM. Moreover, the “MIC MRSA-2” value in experiment [1] (Table 4) is 6.25 µM. Besides, in experiment [2], the MIC S. epidermidis MRSE 35984 came out at 6.25 µM and the “MIC MRSE 35984” value was determined as 6.25 µM. Besides, in experiment [3], the “MIC E. faecium VRE 700221” value is listed as 4.69^a and the “MIC VRE 700221” value is on record as 4.69a micromolar. For the same molecule, in experiment [4], the “MIC A. baumannii 1794” value is >100* and the “MIC A. bau. 1794” value is over 100 µM. In addition, the MIC PAO1 in experiment [5] (Table 1A) was over 100 µM. Moreover, the “MIC PAO1” value in experiment [5] (Table 4) was over 100 µM.
With `CCCCCCCCCCCCCCCCn1cc[n+](-c2ccc(OC(F)(F)F)cc2)c1C.[Br-]` [Compound 7], the minimum inhibitory concentration (MIC) in experiment [1] (Table 1B) and in experiment [1] (Table 3) was 3.13 µM in each case. Moreover, in experiment [1] (Table 4), the “MIC MRSA-2” value worked out at 3.13 µM. Also, the “MIC MRSA BAA-1707” value in the experiment on MRSA BAA-1707 (Table 1B) and in the experiment with MRSA BAA-1707 (Table 3) was 4.69^a μM in each case. In the experiment on MRSA BAA-1707 (Table 4), the “MIC MRSA 1707” value is given as 4.69a micromolar. Also, the “MIC A. bau. 1794” value in experiment [4] is on record as 18.8a micromolar. Also, the “MIC PAO1” value in experiment [5] (Table 4) is over 100 µM. The “MIC S. aureus 29213” value in experiment [6] (Table 1B) and in experiment [6] (Table 3) was 2.35^a μM each time.

The values above are taken from patent US11419335B2, “N-arylated analogues and uses thereof” (University of Florida Research Foundation, Incorporated, priority 2016, dated 2022).
